Numbers after ± are expanded uncertainties.
Details: Crystal; DTA

Structure (SMILES)	Normal melting temperature [°C]
O=c1oc(-c2ccccc2)nc2ccccc12 [2-phenyl-4H-3,1-benzoxazin-4-one]	124.00 ± 2
O=c1[nH]cc(F)c(=O)[nH]1 [5-fluoro-2,4(1H,3H)-pyrimidinedione]	284.00 ± 4
COc1ccc2cc([C@H](C)C(=O)O)ccc2c1 [(S)-(+)-naproxen]	157.50 ± 1.1
CC(=O)Nc1ccc(O)cc1 [N-acetyl-p-aminophenol]	170.00 ± 4
NC(=O)/N=N/C(N)=O [azodicarbonamide]	224.50 ± 1.1

Results, then the compound that gave them:

Normal melting temperature [°C]	Structure (SMILES)
74.50 ± 3	CC(C)Cc1ccc(C(C)C(=O)O)cc1 (stereo not drawn) [ibuprofen]
215.00 ± 4	CC(=O)O[C@H]1C(=O)[C@@]2(C)[C@H]([C@H](OC(=O)c3ccccc3)[C@]3(O)C[C@H](OC(=O)[C@H](O)[C@@H](NC(=O)c4ccccc4)c4ccccc4)C(C)=C1C3(C)C)[C@]1(OC(C)=O)CO[C@@H]1C[C@@H]2O [paclitaxel]
187.00 ± 2	Cc1cn([C@H]2C[C@H](O)[C@@H](CO)O2)c(=O)[nH]c1=O [thymidine]

Reference: the NIST ThermoML archive (doi:10.1021/je049551l)
